In US12617757B2, “Compounds and modules for inhibition of pre-miR-21 and their use in treatment of certain cancers” (University of Florida Research Foundation, Incorporated, priority 2019, dated 2026):
pKd: −log10 of the molar value. Read-outs that look alike come from different tables or passages of the source.

How the values were obtained:
pre-miR-21 WT = assay: Microscale thermophoresis (MST) binding to pre-miR-21 WT; conditions: read-out: Kd, binding of the pre-miR-21 RNA Dicer site
Description: (§1) Microscale Thermophoresis (MST) Binding Measurements. MST fluorescent measurements were performed on a Monolith NT.115 system (NanoTemper Technologies) using the fluorescence of a miR-21 hairpin (A+U Bulge): (5′ Cy5-[…]-3′) (SEQ ID NO: 1) or a miR-21 base paired control (5′ Cy5-[…]-3′) (SEQ ID NO: 2) which were purchased from IDT with RNase-free HPLC purification and used without further purification. The RNA (5 nM) was diluted in 1×MST Buffer (8 mM Na2HPO4, 190 mM NaCl, 1 mM EDTA, and 0.05% (v/v) Tween-20) and folded by heating at 60° C. for 5 min, and slowly cooling to room temperature. Compounds 1 and 2 were diluted in 1×MST Buffer, followed by 1:3 dilutions in 1×MST Buffer containing 5 nM RNA. […] Fluorescence measurements (Ex: 605-645 nm, Em: 680-685 nm) were performed at 10% LED and 80% MST power, with a Laser-On time of 30 s and Laser-Off time of 5 s. The data were analyzed by thermophoresis analysis and fitted by the quadratic binding equation in MST analysis software (NanoTemper Technologies). Dissociation constants were then determined by curve fitting using a single-site model. Normalized MST signal was calculated by normalizing the fluorescent signals using the MST data of 1 binding to pre-miR-21 WT with the lowest signal as 0 and the highest fluorescent signal as 1.

pre-miR-21 BP = assay: MST binding to pre-miR-21 BP (base paired control); conditions: addition of 100 μM of compound
Description: as §1

pre-miR-21 BP RNA = assay: In vitro Dicer processing of pre-miR-21 BP; type: biochemical
From the text: (§2) In vitro Dicer processing. […] Cleavage products were resolved on a denaturing 15% polyacrylamide gel, which was imaged using a Molecular Dynamics Typhoon phosphorimager and quantified with Bio-Rad's QuantityOne software, normalizing to full length RNA.

pre-miR-21 WT RNA [1] = assay: In vitro Dicer processing of pre-miR-21 WT; type: biochemical
From the text: as §2

pre-miR-21 [2] = assay: Cellular Chem-CLIP / C-Chem-CLIP in MDA-MB-231 cells; type: cell-based, human; conditions: for enrichment of the pre-miR-21 transcript by Chem-CLIP: MDA-MB-231, RT-qPCR
Description: Cellular Chem-CLIP/C-Chem-CLIP. The MDA-MB-231 cells were grown to ˜70% confluency as monolayers in 60 mm dishes. The cells were treated with Chem-CLIP compounds (8 or 9) and/or non-cross-linking competitors (1 or 2) for 48 h. Total RNA was extracted using a Quick-RNA MiniPrep Kit (Zymo Research) per the manufacturer's protocol. Approximately 20-30 μg of total RNA was then incubated with 100 μL of streptavidin-agarose beads (Sigma-Aldrich) and shaken for 1 h at room temperature. The solution was removed beads washed six times with 1×PBS. The RNA bound to beads was released, purified, and used for RT-qPCR as previously described^23. Relative fold enrichment of the measured RNA before and after pulldown was measured using equation 3 (Eq. 3): Relative Fold Enrichment=2^−(ΔC^t^before pulldown−ΔC^t^after pulldown) (Eq. 3)
where “ΔCt before pulldown” is the difference between the Ct values for the RNA of interest and a housekeeping gene in total RNA from cells and “ΔCt after pulldown” is the difference between the Ct values for the RNA of interest and the same housekeeping gene in RNA after pulldown.

pre-miR-21 [3] = assay: RT-qPCR of mature miR-21 and pre-miR-21 levels in MDA-MB-231 cells; type: cell-based, human; conditions: for effect on mature miR-21 levels / effect on pre-miR-21 levels: MDA-MB-231, RT-qPCR
Description: Cell culture compound treatment and transfection. For treatment with compounds, stocks in DMSO or water were diluted in growth media and added to cells for 24-72 h. For transfection of plasmid DNA to overexpress the miR-21 hairpin precursor in pcDNA3.1 (Addgene 21114) or pcDNA3-RNaseL (R. H. Silverman, Cleveland Clinic^24) in 24-well plates, Lipofectamine 2000 was used according to the manufacturer's protocol. After transfection, the medium was removed and replaced with growth medium containing compound prepared as described above. For transfection of a control (Santa Cruz Biotechnology: sc-37007) or RNase L targeting siRNA (Santa Cruz Biotechnology: sc-45965), Lipofectamine RNAiMAX Reagent was used for transfection of oligonucleotides, including 2′-5′ A4, according to the manufacturer's protocol.

pre-miR-21 WT RNA [4] = assay: In vitro Chem-CLIP pulldown; type: binding
Description: In vitro Chemical Cross-linking and Isolation by Pull Down (Chem-CLIP) and Competitive Chemical Cross-linking and Isolation by Pull Down (C-Chem-CLIP). RPMI growth medium was heat inactivated at 95° C. for 15 min and then cooled to room temperature. Approximately 10,000 counts of ^32P 5′-end labeled miR-21 precursor hairpin RNA (pre-miR-21 WT) was folded in growth medium at 95° C. for 1 min. After cooling to room temperature, dilutions of Chem-CLIP probes 8 or 9^23 were added and incubated at 37° C. for 18 h. Alternatively, for C-Chem-CLIP, dilutions of competing non-cross-linking parent compounds, 1 or 2, were incubated with RNA for 1 h before addition of Chem-CLIP probe compounds. Streptavidin-agarose beads (Sigma-Aldrich) were then used to pulldown RNA. Samples were then washed with 1×PBS supplemented with 0.1% (v/v) Tween-20 and bound and unbound RNA radioactivity measured using a Beckman Coulter LS6500 Liquid Scintillation Counter as previously described^23.

pre-miR-210 = assay: RT-qPCR of pre-miR-210 and miR-210 in hypoxic MDA-MB-231 cells; type: cell-based, human; conditions: hypoxic MDA-MB-231, RT-qPCR

## CN1CCN(c2ccc(-c3ccc4[nH]c(-c5ccc(OCCCC(=O)NCCCN=[N+]=[N-])cc5)nc4c3)cc2)CC1 [Compound 1]
pre-miR-21 WT
  pKd: 4.70
pre-miR-21 BP
  saturation of the binding isotherm: No saturation of the binding isotherm was observed
pre-miR-21 BP RNA
  protection from Dicer processing: Protection with compound is observed at U26 and U27
pre-miR-21 WT RNA [1]
  inhibition of / protection from Dicer processing: Protection with compound is observed at U23 (boxes marked with arrows) and U26 and U27
pre-miR-21 WT RNA [1]; listed as Formula 1
  inhibition of / protection from Dicer processing: inhibited in vitro Dicer processing
pre-miR-21 [2]; MDA-MB-231, versus probe 8
  competition of Chem-CLIP enrichment (C-Chem-CLIP): enrichment is depleted
pre-miR-21 [3]; 10 μM, MDA-MB-231
  increase of pre-miR-21 levels: 1.3 fold
  inhibition of miR-21 production: 50%
pre-miR-21 [3]
  effect on mature miR-21 levels: inhibits mature miR-21-5p biogenesis
  effect on pre-miR-21 levels: boosts levels of pre-miR-21

## C#CCN(CC(=O)N(CCC)CC(=O)N(CCC)CC(=O)N(CCC)CC(=O)N(CC#C)CC(=O)NCCOCCOCCOCCOc1ccc(C=C2SC(Nc3ccccc3)=C(C(=O)OCC)C2=O)cc1O)C(C)=O [Compound 6]
pre-miR-21 [3]
  effect on mature miR-21 levels: inactive

## CCCN(CC(=O)N(CCC)CC(=O)N(CCC)CC(=O)N(CC(=O)NCCOCCOCCOCCOc1cc(C=C2SC(Nc3ccccc3)=C(C(=O)OCC)C2=O)ccc1O)Cc1cn(CCCNC(=O)CCCOc2ccc(-c3nc4cc(-c5ccc(N6CCN(C)CC6)cc5)ccc4[nH]3)cc2)nn1)C(=O)CN(Cc1cn(CCCNC(=O)CCCOc2ccc(-c3nc4cc(-c5ccc(N6CCN(C)CC6)cc5)ccc4[nH]3)cc2)nn1)C(C)=O [Compound 7]
pre-miR-21 [3]
  effect on mature miR-21 levels: decreased miR-21 levels
  effect on pre-miR-21 levels: increased pre-miR-21 levels
pre-miR-21 [3]; listed as Formula 7
  effect on mature miR-21 levels: did not have enhanced activity over Formula 2

## CC(=O)N(CCNC(=O)CCCc1ccc(N(CCCl)CCCl)cc1)CC(=O)N(CC(=O)N(CCNC(=O)CCCCC1SCC2NC(=O)NC21)CC(N)=O)Cc1cn(CCCNC(=O)CCCOc2ccc(-c3nc4cc(-c5ccc(N6CCN(C)CC6)cc5)ccc4[nH]3)cc2)nn1 (stereo not drawn) [Compound 8]
pre-miR-21 WT RNA [4]
  pulldown of 32P 5′-end labeled pre-miR-21 WT RNA: greater enrichment of the RNA compared to 9
pre-miR-21 [2]; 10 μM, MDA-MB-231
  enrichment of pre-miR-21 by Chem-CLIP pulldown: ~2.5 fold
pre-miR-21 [2]; 10 μM
  enrichment of the pre-miR-21 transcript by Chem-CLIP: enrichment for the pre-miR-21 transcript

## C#CCN(CC(=O)N(CCNC(=O)CCCCC1SCC2NC(=O)NC21)CC(N)=O)C(=O)CN(CCNC(=O)CCCc1ccc(N(CCCl)CCCl)cc1)C(C)=O (stereo not drawn) [Compound 9, reference compound]
pre-miR-21 [2]; 10 μM
  enrichment of the pre-miR-21 transcript by Chem-CLIP: no enrichment

## CCOC(=O)C1=C(Nc2ccccc2)SC(=Cc2ccc(OCCOCCOCCOCCNC(=O)CCCOc3cccc(-c4nc5ccc(-c6nc7cc(N8CCN(C)CC8)ccc7[nH]6)cc5[nH]4)c3)c(O)c2)C1=O [Compound 25]
pre-miR-210
  effect on pre-miR-210: Cleavage of pre-miR-210

## CN1CCN(c2ccc3nc(-c4ccc5nc(-c6cccc(OCCCC(=O)NCCCN=[N+]=[N-])c6)[nH]c5c4)[nH]c3c2)CC1 [Compound 26]
pre-miR-210
  effect on mature miR-210 levels: inhibits mature miR-210 levels
  effect on pre-miR-210: boosts levels of pre-miR-21
